This note sets out measurements from ChEMBL document CHEMBL5465560, “Selectivity Literature for EUbOPEN Chemogenomic Library” (2024).

Molecules are shown by their SMILES.

The target of experiment [1] is T1, Mitogen-activated protein kinase 13 (Homo sapiens) (UniProt O15264).
T1 sequence (whole entry): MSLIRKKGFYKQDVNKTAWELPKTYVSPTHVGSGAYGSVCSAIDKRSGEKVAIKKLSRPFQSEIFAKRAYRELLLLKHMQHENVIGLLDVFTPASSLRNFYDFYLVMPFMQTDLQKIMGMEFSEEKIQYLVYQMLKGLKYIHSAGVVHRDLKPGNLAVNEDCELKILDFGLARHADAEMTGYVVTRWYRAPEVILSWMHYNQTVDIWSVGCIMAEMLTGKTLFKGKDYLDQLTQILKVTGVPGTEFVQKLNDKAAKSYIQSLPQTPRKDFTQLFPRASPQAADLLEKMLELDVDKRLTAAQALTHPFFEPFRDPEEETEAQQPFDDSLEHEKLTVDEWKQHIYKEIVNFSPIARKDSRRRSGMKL
The experiment is described as follows: Selectivity interaction (Ambit KINOMEscan and KiNATiv profiling in Jurkat cells) EUB0000090b MAPK13. Type of experiment: cell-based. Particulars: at 1 µM.

The target in experiment [2] is T2, Myotonin-protein kinase (Homo sapiens) (UniProt Q09013).
T2 sequence (whole entry): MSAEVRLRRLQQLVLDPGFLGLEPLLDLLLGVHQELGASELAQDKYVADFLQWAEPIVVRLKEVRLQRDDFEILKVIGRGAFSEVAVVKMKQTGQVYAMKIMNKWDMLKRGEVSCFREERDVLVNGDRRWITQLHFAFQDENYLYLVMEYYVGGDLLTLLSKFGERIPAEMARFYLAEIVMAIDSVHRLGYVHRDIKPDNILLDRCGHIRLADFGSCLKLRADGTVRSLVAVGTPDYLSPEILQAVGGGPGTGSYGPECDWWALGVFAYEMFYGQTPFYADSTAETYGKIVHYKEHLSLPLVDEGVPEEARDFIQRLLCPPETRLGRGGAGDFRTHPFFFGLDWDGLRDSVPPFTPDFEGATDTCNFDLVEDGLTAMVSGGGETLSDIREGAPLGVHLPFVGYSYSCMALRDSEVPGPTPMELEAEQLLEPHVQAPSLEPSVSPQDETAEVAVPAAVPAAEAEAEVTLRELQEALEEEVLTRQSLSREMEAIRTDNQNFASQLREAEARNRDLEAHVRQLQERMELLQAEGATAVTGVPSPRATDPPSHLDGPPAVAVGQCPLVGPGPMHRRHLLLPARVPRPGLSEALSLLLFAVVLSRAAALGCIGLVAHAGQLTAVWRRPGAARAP
Particulars: at 10 µM.

For experiment [3], the target named is Serine/threonine-protein kinase SBK1 (Homo sapiens) (UniProt Q52WX2). Put plainly: Selectivity interaction (KinomeScan (DiscoverX)) EUB0001079a SBK1. Particulars: at 1 µM.
The target in experiment [4] is Dual specificity mitogen-activated protein kinase kinase 2 (Homo sapiens) (UniProt P36507). Put plainly: Selectivity interaction (SelectScreen profiling (Invitrogen)) EUB0000607a MAP2K2. Particulars: at 2 µM.
Experiment [5] concerns eIF-2-alpha kinase GCN2 (Homo sapiens), Q9P2K8 [S808G]. Put plainly: Selectivity interaction (KinomeScan (DiscoverX)) EUB0000607a EIF2AK4. Particulars: at 10 µM.
The target of experiment [6] is T3, STE20-related kinase adapter protein alpha (Homo sapiens) (UniProt Q7RTN6).
T3 sequence (whole entry): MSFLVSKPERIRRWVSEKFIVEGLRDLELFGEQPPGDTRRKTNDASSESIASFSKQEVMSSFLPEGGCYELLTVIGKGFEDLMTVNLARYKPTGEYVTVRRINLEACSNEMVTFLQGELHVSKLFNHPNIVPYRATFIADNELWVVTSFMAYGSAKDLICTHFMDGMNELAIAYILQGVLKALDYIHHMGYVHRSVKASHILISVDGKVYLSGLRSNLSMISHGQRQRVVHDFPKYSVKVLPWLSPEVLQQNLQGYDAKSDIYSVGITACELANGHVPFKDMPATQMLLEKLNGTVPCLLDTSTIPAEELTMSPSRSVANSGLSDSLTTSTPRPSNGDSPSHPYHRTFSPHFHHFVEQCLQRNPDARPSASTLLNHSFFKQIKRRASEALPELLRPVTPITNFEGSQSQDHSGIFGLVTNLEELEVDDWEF
Put plainly: Selectivity interaction (ActivX KiNativ screen (kinase selectivity in THP-1 cell lysates)) EUB0000639a STRADA. Particulars: lysate. It counts as subcellular.

The target of experiment [7] is T4, Muscle, skeletal receptor tyrosine-protein kinase (Homo sapiens) (UniProt O15146).
T4 sequence (whole entry): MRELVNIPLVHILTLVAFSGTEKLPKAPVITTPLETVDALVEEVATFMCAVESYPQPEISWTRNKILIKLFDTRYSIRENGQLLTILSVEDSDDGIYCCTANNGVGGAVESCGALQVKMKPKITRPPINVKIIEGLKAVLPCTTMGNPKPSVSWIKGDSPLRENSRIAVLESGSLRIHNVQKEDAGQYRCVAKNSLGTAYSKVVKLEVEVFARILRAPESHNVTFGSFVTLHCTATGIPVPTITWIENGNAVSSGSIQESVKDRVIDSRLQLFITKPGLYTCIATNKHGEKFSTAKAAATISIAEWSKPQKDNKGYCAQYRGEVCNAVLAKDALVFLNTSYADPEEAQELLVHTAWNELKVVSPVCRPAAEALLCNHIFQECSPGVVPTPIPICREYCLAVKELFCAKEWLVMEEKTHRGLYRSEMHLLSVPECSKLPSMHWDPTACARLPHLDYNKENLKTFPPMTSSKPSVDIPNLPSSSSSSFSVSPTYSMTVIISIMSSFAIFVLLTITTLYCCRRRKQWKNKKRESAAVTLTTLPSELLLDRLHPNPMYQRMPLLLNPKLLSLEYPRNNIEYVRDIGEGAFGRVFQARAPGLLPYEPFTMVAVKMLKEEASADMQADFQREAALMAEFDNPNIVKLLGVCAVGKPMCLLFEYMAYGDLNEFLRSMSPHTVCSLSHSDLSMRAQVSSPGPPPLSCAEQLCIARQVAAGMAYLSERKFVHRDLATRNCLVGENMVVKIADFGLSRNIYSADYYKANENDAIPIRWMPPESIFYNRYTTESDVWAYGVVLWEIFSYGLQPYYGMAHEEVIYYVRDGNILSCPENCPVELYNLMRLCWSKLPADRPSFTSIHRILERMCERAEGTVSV
The experiment is described as follows: Selectivity interaction (KinomeScan (DiscoverX)) EUB0000618a MUSK. Particulars: at 10 µM.

In experiment [8] the test system is Leucine-rich repeat serine/threonine-protein kinase 2 (Homo sapiens), Q5S007 [G2019S]. Put plainly: (§1) Selectivity interaction (KinomeScan (DiscoverX)) EUB0000618a LRRK2. Particulars: at 10 µM.
Experiment [9] deals with Leucine-rich repeat serine/threonine-protein kinase 2 (Homo sapiens, UniProt Q5S007). Described as §1. Particulars: at 10 µM.
Sequence of Leucine-rich repeat serine/threonine-protein kinase 2 (Q5S007 whole entry): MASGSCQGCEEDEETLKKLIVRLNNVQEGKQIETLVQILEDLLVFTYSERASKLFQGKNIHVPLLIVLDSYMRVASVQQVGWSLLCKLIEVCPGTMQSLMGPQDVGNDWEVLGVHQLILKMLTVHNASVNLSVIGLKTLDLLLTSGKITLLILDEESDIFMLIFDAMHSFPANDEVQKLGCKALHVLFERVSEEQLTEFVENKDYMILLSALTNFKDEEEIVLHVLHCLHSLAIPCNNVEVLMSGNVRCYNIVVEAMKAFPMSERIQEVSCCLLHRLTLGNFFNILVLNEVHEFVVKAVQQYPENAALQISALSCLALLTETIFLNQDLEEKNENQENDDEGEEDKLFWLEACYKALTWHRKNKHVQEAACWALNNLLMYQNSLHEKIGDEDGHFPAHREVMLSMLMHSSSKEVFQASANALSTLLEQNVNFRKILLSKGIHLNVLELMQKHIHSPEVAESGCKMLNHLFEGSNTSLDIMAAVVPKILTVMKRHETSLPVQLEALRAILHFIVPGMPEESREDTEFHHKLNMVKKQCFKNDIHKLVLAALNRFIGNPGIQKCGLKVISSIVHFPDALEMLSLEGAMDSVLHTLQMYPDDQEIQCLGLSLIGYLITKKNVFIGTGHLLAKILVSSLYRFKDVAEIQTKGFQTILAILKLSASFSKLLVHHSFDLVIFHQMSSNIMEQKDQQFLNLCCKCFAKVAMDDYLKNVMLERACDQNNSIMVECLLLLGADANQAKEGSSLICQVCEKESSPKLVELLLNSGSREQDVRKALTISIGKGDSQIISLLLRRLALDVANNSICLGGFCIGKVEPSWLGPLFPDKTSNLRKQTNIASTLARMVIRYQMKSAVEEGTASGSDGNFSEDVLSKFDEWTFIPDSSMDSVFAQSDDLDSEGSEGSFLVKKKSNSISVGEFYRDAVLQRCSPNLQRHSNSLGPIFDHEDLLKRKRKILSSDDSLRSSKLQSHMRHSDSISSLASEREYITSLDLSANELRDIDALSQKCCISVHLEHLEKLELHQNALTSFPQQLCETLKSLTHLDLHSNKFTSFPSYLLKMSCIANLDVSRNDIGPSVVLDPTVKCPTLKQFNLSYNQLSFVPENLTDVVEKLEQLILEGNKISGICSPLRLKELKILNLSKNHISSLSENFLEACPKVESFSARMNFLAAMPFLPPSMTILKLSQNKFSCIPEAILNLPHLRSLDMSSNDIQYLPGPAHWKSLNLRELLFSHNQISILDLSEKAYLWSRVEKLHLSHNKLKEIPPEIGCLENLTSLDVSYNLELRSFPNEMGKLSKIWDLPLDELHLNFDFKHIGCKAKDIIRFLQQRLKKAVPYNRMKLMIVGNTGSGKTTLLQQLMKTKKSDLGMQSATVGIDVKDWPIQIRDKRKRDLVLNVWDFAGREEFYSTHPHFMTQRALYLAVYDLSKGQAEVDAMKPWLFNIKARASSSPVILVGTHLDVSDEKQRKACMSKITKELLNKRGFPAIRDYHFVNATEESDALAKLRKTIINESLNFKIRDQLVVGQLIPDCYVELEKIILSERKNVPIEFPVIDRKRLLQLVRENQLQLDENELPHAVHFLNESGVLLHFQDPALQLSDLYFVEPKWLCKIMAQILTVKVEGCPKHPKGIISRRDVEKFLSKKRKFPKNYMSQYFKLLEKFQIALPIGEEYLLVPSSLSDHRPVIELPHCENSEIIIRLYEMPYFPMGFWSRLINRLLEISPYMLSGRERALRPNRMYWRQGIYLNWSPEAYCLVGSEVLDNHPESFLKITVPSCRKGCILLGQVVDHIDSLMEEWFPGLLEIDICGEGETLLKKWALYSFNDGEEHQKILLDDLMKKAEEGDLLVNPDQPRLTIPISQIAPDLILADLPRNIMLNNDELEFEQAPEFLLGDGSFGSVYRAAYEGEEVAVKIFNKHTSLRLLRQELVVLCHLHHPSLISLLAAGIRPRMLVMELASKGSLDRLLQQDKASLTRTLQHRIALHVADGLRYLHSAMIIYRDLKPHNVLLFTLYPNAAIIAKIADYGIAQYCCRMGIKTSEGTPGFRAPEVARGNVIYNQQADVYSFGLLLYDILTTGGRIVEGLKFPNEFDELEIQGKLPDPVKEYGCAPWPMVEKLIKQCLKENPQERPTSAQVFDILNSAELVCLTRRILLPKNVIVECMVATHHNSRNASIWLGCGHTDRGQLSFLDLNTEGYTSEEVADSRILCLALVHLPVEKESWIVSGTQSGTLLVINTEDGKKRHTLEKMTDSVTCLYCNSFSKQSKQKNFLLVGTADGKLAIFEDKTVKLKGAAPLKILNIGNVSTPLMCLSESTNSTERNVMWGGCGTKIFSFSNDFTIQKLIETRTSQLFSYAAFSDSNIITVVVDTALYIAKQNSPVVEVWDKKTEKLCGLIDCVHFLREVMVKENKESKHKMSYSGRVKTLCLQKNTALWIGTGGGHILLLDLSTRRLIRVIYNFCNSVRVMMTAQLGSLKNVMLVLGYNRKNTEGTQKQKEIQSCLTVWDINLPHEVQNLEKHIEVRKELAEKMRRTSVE

Sequence of Leucine-rich repeat serine/threonine-protein kinase 2 (Homo sapiens), Q5S007 [G2019S] (Q5S007 whole entry G2019S): as the sequence (Q5S007 whole entry) above, with G2019S counted along it
Sequence of Serine/threonine-protein kinase SBK1 (Homo sapiens) (Q52WX2 whole entry): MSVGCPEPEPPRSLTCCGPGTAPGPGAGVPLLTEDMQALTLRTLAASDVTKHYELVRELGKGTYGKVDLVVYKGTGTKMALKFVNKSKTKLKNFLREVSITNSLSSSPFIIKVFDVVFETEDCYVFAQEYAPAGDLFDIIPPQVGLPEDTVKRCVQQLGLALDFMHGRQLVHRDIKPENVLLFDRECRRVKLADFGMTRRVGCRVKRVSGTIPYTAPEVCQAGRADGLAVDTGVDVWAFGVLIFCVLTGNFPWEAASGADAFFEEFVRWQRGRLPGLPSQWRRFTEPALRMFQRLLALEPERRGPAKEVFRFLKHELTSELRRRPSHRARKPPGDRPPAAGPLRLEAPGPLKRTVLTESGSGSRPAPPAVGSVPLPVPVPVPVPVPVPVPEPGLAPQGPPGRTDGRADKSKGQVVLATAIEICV
Sequence of Dual specificity mitogen-activated protein kinase kinase 2 (Homo sapiens) (P36507 whole entry): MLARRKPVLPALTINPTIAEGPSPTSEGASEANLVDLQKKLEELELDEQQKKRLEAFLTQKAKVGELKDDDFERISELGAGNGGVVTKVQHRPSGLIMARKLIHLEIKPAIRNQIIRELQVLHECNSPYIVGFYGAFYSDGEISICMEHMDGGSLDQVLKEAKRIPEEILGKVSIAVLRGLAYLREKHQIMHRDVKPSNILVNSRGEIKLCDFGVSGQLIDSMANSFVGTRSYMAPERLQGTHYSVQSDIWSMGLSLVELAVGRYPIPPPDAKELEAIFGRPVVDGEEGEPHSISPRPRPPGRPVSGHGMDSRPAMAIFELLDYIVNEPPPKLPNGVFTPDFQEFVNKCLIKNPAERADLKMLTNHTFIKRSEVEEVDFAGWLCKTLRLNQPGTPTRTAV
Sequence of eIF-2-alpha kinase GCN2 (Homo sapiens), Q9P2K8 [S808G] (Q9P2K8 whole entry S808G): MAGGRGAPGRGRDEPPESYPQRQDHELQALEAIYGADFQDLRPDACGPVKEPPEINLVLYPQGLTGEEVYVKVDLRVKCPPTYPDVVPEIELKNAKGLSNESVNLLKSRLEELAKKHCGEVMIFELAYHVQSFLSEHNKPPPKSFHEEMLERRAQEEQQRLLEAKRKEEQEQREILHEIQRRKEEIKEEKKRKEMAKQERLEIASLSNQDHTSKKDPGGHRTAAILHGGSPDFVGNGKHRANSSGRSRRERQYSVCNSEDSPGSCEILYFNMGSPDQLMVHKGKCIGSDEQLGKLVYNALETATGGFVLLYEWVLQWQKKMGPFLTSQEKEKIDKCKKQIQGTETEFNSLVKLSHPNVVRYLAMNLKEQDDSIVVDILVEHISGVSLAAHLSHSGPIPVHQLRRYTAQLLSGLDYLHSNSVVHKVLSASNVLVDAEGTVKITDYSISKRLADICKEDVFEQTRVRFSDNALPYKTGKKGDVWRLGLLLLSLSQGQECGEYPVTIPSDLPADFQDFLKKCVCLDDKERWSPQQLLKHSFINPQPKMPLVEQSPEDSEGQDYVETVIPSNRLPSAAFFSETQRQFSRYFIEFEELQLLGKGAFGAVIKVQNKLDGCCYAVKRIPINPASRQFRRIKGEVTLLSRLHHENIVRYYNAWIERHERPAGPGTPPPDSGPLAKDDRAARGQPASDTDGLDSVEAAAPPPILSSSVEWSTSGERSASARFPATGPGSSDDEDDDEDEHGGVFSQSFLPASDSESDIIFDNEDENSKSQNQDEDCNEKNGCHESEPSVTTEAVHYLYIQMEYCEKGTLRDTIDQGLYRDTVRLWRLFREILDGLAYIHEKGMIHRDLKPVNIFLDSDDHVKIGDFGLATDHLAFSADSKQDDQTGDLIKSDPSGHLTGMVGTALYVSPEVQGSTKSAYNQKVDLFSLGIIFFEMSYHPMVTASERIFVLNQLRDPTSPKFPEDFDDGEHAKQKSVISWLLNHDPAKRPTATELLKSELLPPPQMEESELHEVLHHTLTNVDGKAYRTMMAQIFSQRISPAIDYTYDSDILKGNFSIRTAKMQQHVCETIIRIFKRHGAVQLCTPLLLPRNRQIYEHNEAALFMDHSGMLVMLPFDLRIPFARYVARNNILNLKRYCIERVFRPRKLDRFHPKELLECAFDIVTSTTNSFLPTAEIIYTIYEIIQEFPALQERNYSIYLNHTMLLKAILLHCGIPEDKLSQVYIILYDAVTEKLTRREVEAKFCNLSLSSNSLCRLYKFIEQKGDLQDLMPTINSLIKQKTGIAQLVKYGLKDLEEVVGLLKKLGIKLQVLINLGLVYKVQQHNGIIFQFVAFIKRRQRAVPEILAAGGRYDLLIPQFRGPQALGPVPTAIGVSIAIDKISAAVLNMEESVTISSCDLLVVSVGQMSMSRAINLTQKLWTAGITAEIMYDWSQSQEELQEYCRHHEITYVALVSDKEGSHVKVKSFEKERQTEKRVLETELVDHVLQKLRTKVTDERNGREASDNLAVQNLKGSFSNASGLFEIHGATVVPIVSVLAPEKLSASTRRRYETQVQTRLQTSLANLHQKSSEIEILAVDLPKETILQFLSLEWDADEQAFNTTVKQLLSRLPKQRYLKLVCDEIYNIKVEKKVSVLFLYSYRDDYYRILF

Compound `CN(C)C/C=C/C(=O)Nc1ccc(C(=O)N2CCCC(Nc3ncc(Cl)c(-c4c[nH]c5ccccc45)n3)C2)cc1` (stereo not drawn) displayed a % of control in experiment [1] of 85%.

In turn, `CCN(CC)CCCCNc1ncc2cc(-c3cc(OC)cc(OC)c3)c(NC(=O)NC(C)(C)C)nc2n1` displayed a % of control in [2] of 100%.

In experiment [3], `Nc1cnc(N2CCc3cc(S(=O)(=O)Nc4c(F)cc(Cl)cc4F)cc(N4CCCC4=O)c32)nc1` [TP-020n] gave a % of control of 83%.

As for `CNC(=O)Nc1ccc(-c2nc(N3CC4CCC(C3)O4)c3cnn(C4CCC5(CC4)OCCO5)c3n2)cc1`, in experiment [4], the % of inhibition is 2%. This compound also gave a % of control in experiment [5] of 83%.

`CC[C@@H]1[C@H](F)C(=O)N[C@@H]1COc1nccc2cc(C(N)=O)c(OC)cc12` [ZIMLOVISERTIB]: the % of inhibition is -13.1% in experiment [6] (at 0.01 µM); 4.6% in experiment [6] (at 0.04 µM); -11.6% in experiment [6] (at 0.2 µM); 5.4% in experiment [6] (at 1 µM); 3.6% in experiment [6] (at 5 µM).

For `O[C@H]1CC[C@H](Nc2ncc3nc(Nc4c(F)cc(F)cc4F)n([C@H]4CCOC4)c3n2)CC1`, the values for the % of control in experiment [7], in [8] and in experiment [9] were 63%, 95% and 83%, respectively.
